Test results: paper PMC11537224 (ACS Infectious Diseases, 2024)
Where two headings read alike, the source gives them in different places.

Columns and labels:
[1] = system: T. brucei bloodstream forms; assay: Activity toward T. brucei bloodstream forms; type: cell-based, T. brucei brucei Lister 427; details: for EC50: Trypanosoma brucei, 72 h
[2] = system: L. infantum promastigotes; assay: L. infantum promastigotes viability assay; type: cell-based, L. infantum MHOM/TN/80/IPT1; details: Leishmania infantum, 72 h, read-out: L. infantum EC50 (μM)
T. brucei [3] = details: read-out: T. brucei EC50; cited from earlier work
TbPTR1 = biological target: T1, TbPTR1 (Trypanosoma brucei brucei, UniProt O76290); assay: TbPTR1 inhibition assay
T1 sequence (O76290 1-268): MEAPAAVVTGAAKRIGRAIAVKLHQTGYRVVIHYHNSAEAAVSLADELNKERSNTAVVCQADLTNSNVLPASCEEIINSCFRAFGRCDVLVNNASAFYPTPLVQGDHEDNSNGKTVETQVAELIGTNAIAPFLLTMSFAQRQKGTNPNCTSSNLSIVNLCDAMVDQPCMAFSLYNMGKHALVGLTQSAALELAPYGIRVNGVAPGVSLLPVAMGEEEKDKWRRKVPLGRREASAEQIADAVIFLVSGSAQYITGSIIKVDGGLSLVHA

TbTS = TbTS (Trypanosoma brucei brucei, UniProt Q27783); assay: TbDHFR-TS inhibition assay versus the TS domain; type: biochemical
hTS = hTS (Homo sapiens, UniProt P04818); assay: hTS inhibition assay; type: biochemical
TbDHFR = TbDHFR (Trypanosoma brucei brucei, UniProt Q27783); assay: biochemical
hDHFR = biological target: T2, hDHFR (Homo sapiens, UniProt P00374); assay: biochemical
T2 sequence (P00374 1-187): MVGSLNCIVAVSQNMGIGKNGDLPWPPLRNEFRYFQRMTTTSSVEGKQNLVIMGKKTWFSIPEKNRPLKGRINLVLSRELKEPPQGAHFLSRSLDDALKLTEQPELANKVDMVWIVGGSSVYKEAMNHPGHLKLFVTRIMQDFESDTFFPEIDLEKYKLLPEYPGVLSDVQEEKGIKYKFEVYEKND

LmDHFR = LmDHFR (Leishmania major, UniProt P07382); assay: LmDHFR inhibition assay; type: biochemical, L. major
TcDHFR = TcDHFR (Trypanosoma cruzi, UniProt Q27793); assay: TcDHFR inhibition assay; type: biochemical, T. cruzi
T. brucei [4] = details: read-out: growth of parasites EC50; mean value from four diverse culture media; cited from earlier work
[5] = read-out: T. brucei EC50 (μM) folate deficiency

Chain of hTS (P04818 whole entry): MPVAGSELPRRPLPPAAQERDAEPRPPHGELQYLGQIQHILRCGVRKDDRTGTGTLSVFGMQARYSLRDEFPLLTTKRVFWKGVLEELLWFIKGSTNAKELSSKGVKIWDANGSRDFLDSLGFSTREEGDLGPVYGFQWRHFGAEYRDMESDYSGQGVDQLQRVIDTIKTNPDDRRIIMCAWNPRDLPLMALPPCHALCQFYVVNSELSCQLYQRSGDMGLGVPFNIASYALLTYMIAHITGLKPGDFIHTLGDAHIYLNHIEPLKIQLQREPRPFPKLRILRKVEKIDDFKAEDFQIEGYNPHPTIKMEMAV
Chain of TbTS (Q27783 whole entry, the tested form may be a part): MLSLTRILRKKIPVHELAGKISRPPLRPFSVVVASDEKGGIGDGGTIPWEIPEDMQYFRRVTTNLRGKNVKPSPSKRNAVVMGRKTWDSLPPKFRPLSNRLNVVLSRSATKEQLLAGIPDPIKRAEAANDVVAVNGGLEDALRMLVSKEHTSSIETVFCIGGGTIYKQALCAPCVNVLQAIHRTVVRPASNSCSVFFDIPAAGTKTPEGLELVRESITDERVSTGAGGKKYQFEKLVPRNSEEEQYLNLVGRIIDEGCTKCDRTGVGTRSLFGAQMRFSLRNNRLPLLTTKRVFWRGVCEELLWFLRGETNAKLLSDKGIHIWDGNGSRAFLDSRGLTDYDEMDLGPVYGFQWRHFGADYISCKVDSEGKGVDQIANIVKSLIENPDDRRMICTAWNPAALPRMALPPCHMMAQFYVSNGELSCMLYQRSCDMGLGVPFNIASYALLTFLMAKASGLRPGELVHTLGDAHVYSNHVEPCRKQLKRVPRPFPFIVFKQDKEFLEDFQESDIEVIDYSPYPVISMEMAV
Chain of TbDHFR (Q27783 whole entry): as the sequence (Q27783 whole entry, the tested form may be a part) above
Chain of TcDHFR (Q27793 whole entry): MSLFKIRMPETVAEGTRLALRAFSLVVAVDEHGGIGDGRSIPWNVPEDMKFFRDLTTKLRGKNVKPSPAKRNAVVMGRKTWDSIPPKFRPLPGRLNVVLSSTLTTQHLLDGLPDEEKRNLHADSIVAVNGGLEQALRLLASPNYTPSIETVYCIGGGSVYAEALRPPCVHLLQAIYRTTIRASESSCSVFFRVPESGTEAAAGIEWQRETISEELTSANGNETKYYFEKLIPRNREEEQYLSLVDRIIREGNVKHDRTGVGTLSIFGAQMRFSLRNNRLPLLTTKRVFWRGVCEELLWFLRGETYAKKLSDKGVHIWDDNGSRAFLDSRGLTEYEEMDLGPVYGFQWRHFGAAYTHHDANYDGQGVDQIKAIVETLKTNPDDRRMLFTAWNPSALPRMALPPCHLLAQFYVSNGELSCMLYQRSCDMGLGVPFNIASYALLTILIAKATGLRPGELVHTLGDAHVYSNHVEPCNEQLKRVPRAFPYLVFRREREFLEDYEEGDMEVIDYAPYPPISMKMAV
Chain of LmDHFR (P07382 whole entry): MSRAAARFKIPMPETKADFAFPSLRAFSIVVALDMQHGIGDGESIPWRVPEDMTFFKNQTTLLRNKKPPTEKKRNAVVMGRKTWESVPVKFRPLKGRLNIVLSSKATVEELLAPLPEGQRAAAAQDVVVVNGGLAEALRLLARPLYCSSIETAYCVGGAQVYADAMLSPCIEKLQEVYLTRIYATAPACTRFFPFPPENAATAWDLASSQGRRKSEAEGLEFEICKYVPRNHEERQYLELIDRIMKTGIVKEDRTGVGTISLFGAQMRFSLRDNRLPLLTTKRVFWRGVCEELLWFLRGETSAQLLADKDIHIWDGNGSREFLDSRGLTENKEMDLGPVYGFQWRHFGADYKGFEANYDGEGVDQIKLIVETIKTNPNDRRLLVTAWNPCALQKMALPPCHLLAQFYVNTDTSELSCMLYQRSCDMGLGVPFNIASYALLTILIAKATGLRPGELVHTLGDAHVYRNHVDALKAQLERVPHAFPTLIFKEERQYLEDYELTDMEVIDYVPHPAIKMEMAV

Ki (TbPTR1) [µM]	Ki (hTS) [µM]	EC50 enhancement in folate deficiency medium versus standard medium ([1]; T. brucei, 23.3 μM to 5.4 nM) [fold]	Structure (SMILES)	EC50 ([1]; read-out: T. brucei EC50 (μM)) [µM]	EC50 [1, 5] [µM]	EC50 [2] [µM]	EC50 (T. brucei [3]) [µM]	Ki (TbTS) [µM]	Ki (TbDHFR) [µM]	Ki (hDHFR) [µM]	Ki (LmDHFR) [µM]	Ki (TcDHFR) [µM]	drop-off in potency TcDHFR versus TbDHFR (TcDHFR; Ki TcDHFR versus Ki TbDHFR) [fold]	EC50 (T. brucei [4]) [µM]
4.16	–	–	CC1(C)N=C(N)N=C(N)N1c1ccc(Cl)cc1 [Cyc, cycloguanil, reference compound]	> 80	27.2	> 80	> 25	–	–	–	–	–	–	–
13.3	> 500	–	N=C(N)Nc1nc2ccccc2[nH]1 [2a, 2-Guanidinobenzimidazole]	> 20	> 20	> 20	–	23.6	0.029	2.21	–	–	–	–
–	11.8	–	CCc1nc(N)nc(N)c1-c1ccc(Cl)cc1 [Pyr, pyrimethamine, reference compound]	17.3	2.08	99.2	–	–	–	–	–	–	–	–
–	–	4300	CN(Cc1cnc2nc(N)nc(N)c2n1)c1ccc(C(=O)N[C@@H](CCC(=O)O)C(=O)O)cc1 [MTX, methotrexate, reference compound]	23.3	0.0054	–	–	–	–	–	–	–	–	–
4.94	> 500	–	N=C(N)Nc1nc2cc(Cl)cc(Cl)c2[nH]1 [2d, 4,6-Dichloro-2-guanidinobenzimidazole]	2.91	5.97	6.62	–	20.3	0.113	4.36	–	–	–	–
–	–	–	CCCCCCCCCCCCCCCCOP(=O)([O-])OCC[N+](C)(C)C [MLF, miltefosine, reference compound]	–	–	10.9	–	–	–	–	–	–	–	–
–	–	–	N=C(N)c1ccc(OCCCCCOc2ccc(C(=N)N)cc2)cc1 [PENT, pentamidine, reference compound]	0.0041	–	–	–	–	–	–	–	–	–	–
–	–	–	Cc1ccc2nc(N)[nH]c(=O)c2c1Sc1ccncc1 [nolatrexed]	–	–	–	–	–	–	–	–	–	–	~32

Structure (SMILES)	Ki (TbPTR1) [µM]	Ki (hTS) [µM]	EC50 enhancement in folate deficiency medium versus standard medium ([1]; T. brucei, 23.3 μM to 5.4 nM) [fold]	EC50 ([1]; read-out: T. brucei EC50 (μM)) [µM]	EC50 [1, 5] [µM]	EC50 [2] [µM]	EC50 (T. brucei [3]) [µM]	Ki (TbTS) [µM]	Ki (TbDHFR) [µM]	Ki (hDHFR) [µM]	Ki (LmDHFR) [µM]	Ki (TcDHFR) [µM]	drop-off in potency TcDHFR versus TbDHFR (TcDHFR; Ki TcDHFR versus Ki TbDHFR) [fold]	EC50 (T. brucei [4]) [µM]
Cc1cc2nc(NC(=N)N)[nH]c2cc1C [2g, 5,6-Dimethyl-2-guanidinobenzimidazole]	54	> 500	–	14.5	13.8	> 20	–	18.2	0.009	3.55	1.04	0.6	67	–
N=C(N)Nc1nc2cc(Cl)c(Cl)cc2[nH]1 [2c, 5,6-Dichloro-2-guanidinobenzimidazole]	3.23	> 500	–	7.8	6.52	22.5	–	50.3	0.66	1.51	1.58	–	–	–
